Read-outs that look alike come from different tables or passages of the source.

Data set [1] concerns adolescents with single ventricle physiology after Fontan palliation. The data set is classed as in vivo, human. As to the method:
A Phase I/II dose escalation trial of Udenafil in adolescents with single ventricle physiology after Fontan palliation was conducted. […] The 36 subjects enrolled in the trial were comprised of 6 cohorts, as described in Table 1. The goals for this trial were to assess the safety of udenafil at multiple dose levels over a five-day period, the pharmacokinetic profile of udenafil in adolescents with Fontan physiology, and the short-term effect of udenafil on pharmacodynamic measures of exercise capacity, ventricular performance, and vascular function. Multiple doses of udenafil or a pharmaceutically acceptable salt thereof were administered to male and female Fontan patients who are 14-18 years of age. Inclusion Criteria for the trial were: • Males and females with Fontan physiology who are 14-18 years of age. • Willingness to return to center to complete blood draws and exercise tests as described in the study protocol. • Patients must agree to abstain from alcohol, caffeinated beverages, and grapefruit juice for the duration of the trial. • Informed assent from subject and informed consent from parent/legal guardian as appropriate. […] The purpose of this example was to describe and evaluate the safety of the udenafil compositions administered in the study described in Example 1. Tables 3-6 present numbers of subjects reporting at least one AE; data are presented by treatment group. The counts are presented by AE category (Table 3) and by preferred term (Table 6). Tables 3-6 report all AEs by category (Table 3), serious AEs (Table 4), non-serious AEs (Table 5), and all AEs by preferred term (Table 6). […] Tables 9-12 present AEs by preferred term (similar to Table 6), but additionally report the number of subjects with an AE and the number of AEs (Table 9), the number of AE events/subjects grouped by treatment group and by related (including possibly or probably) vs. not related to the study drug (Table 10), mild vs. moderate/severe (Table 11), and expected vs. unexpected AEs (Table 12).

The next data set can be described thus: clinical. Particulars: human, in vivo. The method, then:
The population PK analysis was performed using a non-linear mixed effects modeling approach. This approach estimates the typical value of parameters and their variances. It was assumed subjects were at steady state (SS): at a time (t) after dose (D) given at time tD after repeated administration of dose D given at interval τ (t≥tD) as PK samples/udenafil concentrations were taken on study day 6.
As only the drug administration at Day 6 was supplied, it is expected that the subjects have taken the drug at regular intervals at home; due to this a steady state flag will be tested to account for the doses which are not available. As stated, it is assumed steady state has been reached by Day 6, as previous studies of udenafil have stated that during multiple dosing, steady state is reached in 5 days, with apparently little additional accumulation occurring after dosing for 7 days. If there were missed doses during the study period prior to the PK sampling, this can affect the ability to determine whether steady state could be assumed or not for the PK profile. If two or more additional drug administration dates and times were available prior to the visit where the PK samples were taken, then a much better dosing profile could be used for analysis.
One- and two-compartment models were explored (based on literature and available data). The equation for the Input model for the drug described oral absorption. For the one-compartment model, the following equation may apply to the model:
The robustness of the final model was assessed in PDxPOP® 5 by bootstrap re-sampling (n=1000). Values obtained with the bootstrap (based on all runs with successful minimization) were compared to the parameter estimates from the final model. To evaluate the accuracy of the model predictions, normalized prediction distribution errors (NPDE) was performed.
One- and two-compartment models with oral absorption input were evaluated using initial estimates obtained from the literature as described above, and were explored to determine the potential structure of the model. The models were evaluated during the model building process by using objective function value, level of statistical significance, goodness of fit plots, and standard error.
The only covariate available for analysis was current body weight. Weight was tested as a fixed effect on typical values for clearance and volume of distribution (e.g., weight has a “fixed effect” on clearance). Median weight in the dataset was 65.3 kg. […]
During the model building process, a number of residual error models were evaluated. […]
Bootstrap re-sampling was undertaken to compare the parameter estimates from the final model with those determined following 1000 bootstrap runs. […]

With `CCCOc1ccc(S(=O)(=O)NCCC2CCCN2C)cc1-c1nc2c(CCC)nn(C)c2c(=O)[nH]1` (stereo not shown) [udenafil], the “AE category: Musculoskeletal/skin” value in data set [1] (37.5 mg daily) is 1 (17%) n (%). Besides, the “AE category: Musculoskeletal/skin” value in data set [1] (37.5 mg twice daily) is reported as 1 (17%) n (%). The “AE category: Musculoskeletal/skin” value in data set [1] (87.5 mg daily) was 1 (17%) n (%). Moreover, in data set [1] (87.5 mg twice daily), the “AE category: Musculoskeletal/skin” value was 2 (33%) n (%). Also, in data set [1] (125 mg daily), the “AE category: Musculoskeletal/skin” value is recorded as 2 (33%) n (%). Further, in data set [1] (both, human, in vivo, 5 day), the “subjects who had expected adverse events” value worked out at 27 and the “subjects who had unexpected adverse events” value worked out at 18. In data set [1] (both, human, in vivo, 5 days), the “Subjects with adverse events possibly related to the study drug” value stood at 21 subjects, the “Subjects with adverse events probably related to the study drug” value stood at 11 subjects, the “Subjects with adverse events related to the study drug” value is reported as “none” and the “Subjects with adverse events unrelated to the study drug” value is recorded as 17 subjects. In addition, in data set [1] (both, human, in vivo, 5 days), the “subjects who had a severe adverse event” value is given as 1, the “subjects who had mild adverse events” value turned out to be 27 and the “subjects who had moderate adverse events” value amounted to 13. Further, in data set [1] (in vivo), the Serious adverse events result is reported as “No serious AEs were reported”. In addition, in the data set “clinical”, the Vd/F was 74 L, the “apparent clearance (CL/F/70 kg)” value came out at 36 L/h, the inter-compartmental clearance (Q/F) amounted to 21.1 L/h and the “peripheral volume of distribution (V3/F)” value is 181 L.

Broadly, the Vd/F is the volume of distribution divided by bioavailability.

Source of the values: US10653698B2, “Methods of improving myocardial performance in Fontan patients using udenafil compositions” (priority 2014, dated 2020).
